Source: patent US7432226B2, “Herbicidally active composition” (Bayer CropScience GmbH, priority 2003, dated 2008)

How the values were obtained:
Conditions in all cases: in vivo
[1] = system: Barley, cultivar “Baronesse”; experiment: Herbicidal post-emergence action, damage to crop plants: barley Baronesse
Description: (§1) Herbicidal Post-emergence Action
(§2) Seeds of monocotyledonous and dicotyledonous weeds and of crop plants are placed in sandy loam soil in plastic pots, covered with soil and cultivated in a greenhouse under good growth conditions.
(§3) Three weeks after sowing, the test plants are treated at the 3-4-leaf stage.
(§4) Stated is the respective degree of damage to the crop plants and the reduction of the damage by the herbicide/safener combinations according to the invention in percent, compared with the herbicide applied alone.

Corn, cultivar “Lorenzo” = experiment: Herbicidal post-emergence action, damage to crop plants: corn
Description: as §1, §2, §3, §4

[2] = system: Wheat, cultivar “Kanzler”; experiment: Herbicidal post-emergence action, damage to crop plants: wheat Kanzler
Description: as §1, §2, §3, §4

Barley, cultivar “Duett” = experiment: Herbicidal post-emergence action, damage to crop plants: barley Duett
Description: as §1, §2, §3, §4

Row | SMILES | Degree of damage [1] [%] | Degree of damage (Corn, cultivar “Lorenzo”) [%] | Degree of damage [2] [%] | Degree of damage (Barley, cultivar “Duett”) [%]
1 | COC(=O)c1ccccc1S(=O)(=O)NC(=O)Nc1nc(C)nc(OC)n1 [herbicide A1.1, metsulfuron-methyl] | 10 | 50 | 10 | –
2 | COC(=O)c1sccc1S(=O)(=O)NC(=O)Nc1nc(C)nc(OC)n1 [herbicide A2.1, thifensulfuron-methyl] | – | 20 | 10 | 20
3 | COC(=O)c1ccccc1S(=O)(=O)NC(=O)N(C)c1nc(C)nc(OC)n1 [herbicide A3.1, tribenuron-methyl] | – | 10 | 20 | –
4 | COc1nc(C)nc(NC(=O)NS(=O)(=O)c2ccccc2Cl)n1 [herbicide A4.1, chlorsulfuron] | 10 | 70 | – | –
